Here are results for ten molecules from publication PMC4902181 (Journal of medicinal chemistry, 2015).

Data set [1] is described as follows: Rat liver microsomal stability. The conditions noted are these: compound 10 µM, 30 min incubation. The format is in vitro ADME. Background: Liver microsomes are a subcellular fraction often used to study metabolism.
The nature of data set [2]: Human liver microsomal stability. The class given is in vitro ADME. The following applies: compound 10 µM, 30 min incubation.
For a further data set, the target named is RBP4 (Homo sapiens, UniProt P02753). The experiment in a line: RBP4 scintillation proximity assay. The class given is binding. (In general: Scintillation proximity formats need no separation of bound from free tracer.)
Data set [3] can be described thus: Single dose IV and PO PK in rats. The class given is in vivo. The following applies: Sprague-Dawley, rat, plasma, 2 mg/kg.
In the next data set the test system is MDCK-MDR1. The experiment in a line: MDR1-MDCK permeability assay. The format is in vitro ADME.
The target in the next data set is hERG channel (Homo sapiens, UniProt Q12809). The experiment in a line: Patch-Xpress patch-clamp hERG assay. The format is cell-based.
Chain of hERG channel (Q12809 whole entry): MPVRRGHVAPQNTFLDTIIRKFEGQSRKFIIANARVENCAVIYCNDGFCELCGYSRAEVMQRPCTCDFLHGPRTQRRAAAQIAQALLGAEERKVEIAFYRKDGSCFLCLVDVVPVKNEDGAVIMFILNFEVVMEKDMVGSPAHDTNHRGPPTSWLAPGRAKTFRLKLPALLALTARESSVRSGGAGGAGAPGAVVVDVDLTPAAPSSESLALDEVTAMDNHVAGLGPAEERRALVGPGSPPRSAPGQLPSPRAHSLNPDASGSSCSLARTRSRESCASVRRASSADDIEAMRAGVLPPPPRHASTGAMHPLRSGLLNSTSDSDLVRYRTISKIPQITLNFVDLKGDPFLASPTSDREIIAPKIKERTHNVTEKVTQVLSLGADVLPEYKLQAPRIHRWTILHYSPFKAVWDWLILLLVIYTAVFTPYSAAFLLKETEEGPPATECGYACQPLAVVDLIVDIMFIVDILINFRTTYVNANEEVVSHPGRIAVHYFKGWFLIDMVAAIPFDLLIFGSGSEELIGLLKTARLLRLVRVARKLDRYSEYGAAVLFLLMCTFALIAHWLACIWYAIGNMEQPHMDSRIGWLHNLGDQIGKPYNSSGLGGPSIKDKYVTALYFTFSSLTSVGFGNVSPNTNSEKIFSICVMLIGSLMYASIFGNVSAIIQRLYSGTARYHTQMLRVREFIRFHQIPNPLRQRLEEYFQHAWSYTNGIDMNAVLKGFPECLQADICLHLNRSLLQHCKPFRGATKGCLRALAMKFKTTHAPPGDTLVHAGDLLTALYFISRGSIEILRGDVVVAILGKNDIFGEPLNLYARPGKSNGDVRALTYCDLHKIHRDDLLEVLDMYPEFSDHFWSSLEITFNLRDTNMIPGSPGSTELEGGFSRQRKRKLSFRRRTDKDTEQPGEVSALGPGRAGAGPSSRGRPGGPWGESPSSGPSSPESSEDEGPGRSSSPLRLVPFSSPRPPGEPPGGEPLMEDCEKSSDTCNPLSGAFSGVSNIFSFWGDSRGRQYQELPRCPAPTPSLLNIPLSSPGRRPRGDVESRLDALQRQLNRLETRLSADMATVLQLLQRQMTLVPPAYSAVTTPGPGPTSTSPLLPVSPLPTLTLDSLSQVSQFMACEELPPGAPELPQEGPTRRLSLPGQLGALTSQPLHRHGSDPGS
Another data set has as its target T1, human PXR (Homo sapiens, UniProt O75469).
T1 sequence (O75469 1-434): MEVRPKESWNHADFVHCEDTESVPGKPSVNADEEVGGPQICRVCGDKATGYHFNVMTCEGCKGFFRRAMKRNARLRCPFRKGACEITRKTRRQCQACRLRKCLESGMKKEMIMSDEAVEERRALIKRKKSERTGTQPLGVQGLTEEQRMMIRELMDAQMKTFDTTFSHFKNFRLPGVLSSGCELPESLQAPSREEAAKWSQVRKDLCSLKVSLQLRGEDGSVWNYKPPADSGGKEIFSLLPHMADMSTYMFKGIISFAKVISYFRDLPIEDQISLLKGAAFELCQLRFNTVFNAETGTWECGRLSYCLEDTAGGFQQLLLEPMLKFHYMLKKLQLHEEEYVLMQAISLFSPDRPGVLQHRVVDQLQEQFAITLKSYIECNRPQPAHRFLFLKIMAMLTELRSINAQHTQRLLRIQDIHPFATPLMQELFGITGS
Kind of data set: Human PXR activation. The conditions noted are these: data not shown.

The test system of data set [4] is panel of fifty-five GPCRs, enzymes, ion channels, and transporters. The experiment in a line: Standard off-target screening panel. The conditions noted are these: data not shown.
The conditions of data set [5]: 30 min incubation; cited from earlier work.
The target in the next data set is RBP4-TTR interaction (Homo sapiens, UniProt P02753). The experiment in a line: HTRF retinol-dependent RBP4-TTR interaction assay. The format is biochemical. The conditions noted are these: read-out: RBP4 HTRF IC50; 1 µM retinol. In general terms: Time-resolved FRET reads energy transfer from a long-lived donor to a nearby acceptor.
In data set [6] the test system is serum RBP4. The conditions noted are these: acute and chronic rodent oral dosing; cited from earlier work.
A further data set deals with CYP2C9 (Homo sapiens, UniProt P11712). The conditions noted are these: read-out: CYP2C9 inhibitory activity IC50; cited from earlier work.
Chain of CYP2C9 (P11712 whole entry): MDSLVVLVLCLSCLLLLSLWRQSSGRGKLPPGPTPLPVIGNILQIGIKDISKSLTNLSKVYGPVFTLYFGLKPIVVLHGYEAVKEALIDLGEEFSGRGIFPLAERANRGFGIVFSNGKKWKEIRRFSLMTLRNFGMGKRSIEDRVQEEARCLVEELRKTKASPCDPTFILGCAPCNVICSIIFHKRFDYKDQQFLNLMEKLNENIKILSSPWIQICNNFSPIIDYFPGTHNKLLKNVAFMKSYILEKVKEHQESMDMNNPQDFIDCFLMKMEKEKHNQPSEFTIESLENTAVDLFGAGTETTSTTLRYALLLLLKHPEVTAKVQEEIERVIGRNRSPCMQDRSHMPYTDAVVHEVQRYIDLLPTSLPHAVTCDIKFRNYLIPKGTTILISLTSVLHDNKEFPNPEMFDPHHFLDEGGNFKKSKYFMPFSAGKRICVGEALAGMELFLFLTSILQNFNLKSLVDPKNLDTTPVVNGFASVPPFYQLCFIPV
The subject of data set [7] is serum RBP4. The conditions noted are these: chronic oral administration, Abca4−/− mouse; cited from earlier work.
The next data set has as its system lipofuscin bisretinoids. The conditions noted are these: chronic oral administration, Abca4−/− mouse; cited from earlier work.

“Also recorded” adds a separate entry of the source. A value given as a limit tells only on which side of the number the result lay.

As for `Cc1cc(C(=O)O)nc(N2C[C@@H]3CN(c4ccccc4C(F)(F)F)C[C@@H]3C2)n1` [Compound 18, 6-Methyl-2-((3aR,6aS)-5-(2-(trifluoromethyl)phenyl)hexahydropyrrolo[3,4-c]pyrrol-2(1H)-yl)pyrimidine-4-carboxylic Acid], in data set [1], the “microsomal stability (% remaining) RLM” value is listed as 76 % remaining. Moreover, the “microsomal stability (% remaining) HLM” value in data set [2] turned out to be 80 % remaining.

Regarding `O=C(O)c1cncc(N2C[C@H]3C[C@@H](c4ccccc4C(F)(F)F)C[C@H]3C2)c1` [Compound 51, 5-((3aR,5r,6aS)-5-(2-(Trifluoromethyl)phenyl)hexahydrocyclopenta[c]pyrrol-2(1H)-yl)nicotinic Acid], the “RBP4 activity” value on RBP4 is given as “devoid of RBP4 activity”.

For the molecule `Cc1cc(C(=O)O)nc(N2CCC(c3ccccc3C(F)(F)F)CC2)n1` [Compound 10, 6-Methyl-2-(4-(2-(trifluoromethyl)phenyl)piperidin-1-yl)-pyrimidine-4-carboxylic Acid], the “microsomal stability (% remaining) RLM” value in data set [1] is listed as 96 % remaining. The “microsomal stability (% remaining) HLM” value in data set [2] came out at 68 % remaining.

In the case of `Cc1cc(C(=O)O)nc(N2C[C@H]3C[C@@H](c4ccccc4C(F)(F)F)C[C@H]3C2)n1` [Compound 33, 6-Methyl-2-((3aR,5r,6aS)-5-(2-(trifluoromethyl)phenyl)-hexahydrocyclopenta[c]pyrrol-2(1H)-yl)pyrimidine-4-carboxylic Acid], in data set [3], the clearance was 5.06 mL/h/kg. In data set [1], the “microsomal stability (% remaining) RLM” value worked out at 93 % remaining. For the same molecule, the MDCK-MDR1 permeability class result in the data set with MDCK-MDR1 was “highly permeable; also recorded: high permeability”. Also, at hERG channel, the “off-target activity at the hERG channel” value was “no significant off-target activity”. For the same molecule, the “microsomal stability (% remaining) HLM” value in data set [2] turned out to be 94 % remaining. The “human PXR activation” value at human PXR is “did not induce human PXR activation”. Moreover, the “off-target activity in screening panel” value in data set [4] is “no significant off-target activity”.

As usually defined, the IC50 is the midpoint of a concentration-inhibition curve. As to `O=C(O)c1ccccc1NC(=O)N1C[C@H]2C[C@@H](c3ccccc3C(F)(F)F)C[C@H]2C1` [Compound 4, 2-((3aR,5r,6aS)-5-(2-(trifluoromethyl)phenyl)octahydrocyclopenta[c]pyrrole-2-carboxamido)benzoic acid], the IC50 at RBP4 (read-out: RBP4 SPA IC50, fixed 10 nM 3H-retinol) was 72.7 nM; on RBP4-TTR interaction, 294 nM; on CYP2C9, 340 nM. The “microsomal stability (% remaining) RLM” value in data set [1] is 75 % remaining. The “HLM stability (% remaining)” value in data set [5] is recorded as 100 % remaining. The “lowering of serum RBP4 levels” value in the data set on serum RBP4 [6] is listed as above 85%. For the same molecule, the “microsomal stability (% remaining) HLM” value in [2] was 100 % remaining.

For the molecule `Cc1cc(C(=O)O)nc(N2C[C@H]3C[C@H](c4ccccc4C(F)(F)F)C[C@H]3C2)n1` [Compound 40, 6-Methyl-2-((3aR,5s,6aS)-5-(2-(trifluoromethyl)phenyl)-hexahydrocyclopenta[c]pyrrol-2(1H)-yl)pyrimidine-4-carboxylic Acid], at RBP4, the “RBP4 activity” value is “devoid of RBP4 activity”.

In the case of `O=C(O)c1ccccc1NC(=O)N1CCC(c2ccccc2C(F)(F)F)CC1` [Compound 3, A1120, reference compound], the “microsomal stability (% remaining) RLM” value in [1] worked out at 85 % remaining. In addition, in [5], the “HLM stability (% remaining)” value was ~ 3 % remaining. Also, in [2], the “microsomal stability (% remaining) HLM” value was found to be 3 % remaining. Also, in the data set with serum RBP4 [7], the “reduction in serum RBP4” value was 75%. The “reduction of accumulation of lipofuscin bisretinoids” value in the data set with lipofuscin bisretinoids is reported as “approximately 50%”.

As for `COC(=O)c1cc(C)nc(N2CCN(c3ccccc3C(F)(F)F)CC2)n1` [Compound 13, methyl 6-methyl-2-(4-(2-(trifluoromethyl)phenyl)piperazin-1-yl)-pyrimidine-4-carboxylate], the “microsomal stability (% remaining) RLM” value in data set [1] is 0.0 % remaining. In data set [2], the “microsomal stability (% remaining) HLM” value is reported as 0.0 % remaining.

On to `Cc1cc(C(=O)O)nc(N2CCN(c3ccccc3C(F)(F)F)CC2)n1` [Compound 14, 6-Methyl-2-(4-(2-(trifluoromethyl)phenyl)piperazin-1-yl)-pyrimidine-4-carboxylic Acid], for which the “microsomal stability (% remaining) RLM” value in [1] came out at 63 % remaining. Besides, the “microsomal stability (% remaining) HLM” value in [2] worked out at 18 % remaining.

Turning to `COC(=O)c1cc(C)nc(N2C[C@H]3C[C@@H](c4ccccc4C(F)(F)F)C[C@H]3C2)n1` [Compound 28, Methyl 6-Methyl-2-((3aR,5r,6aS)-5-(2-(trifluoromethyl)phenyl)-hexahydrocyclopenta[c]pyrrol-2(1H)-yl)pyrimidine-4-carboxylate], the “microsomal stability (% remaining) RLM” value in data set [1] came to 9.8 % remaining. In addition, the “microsomal stability (% remaining) HLM” value in [2] is listed as 0.2 % remaining.
